Results from US20090084024A1, “TRAP OR DISPENSER” (EXOSECT LIMITED, priority 2006, published 2009).

Experiments:
[1] = Release from two phase 100% carnauba wax lures in Eppendorf tubes (entrainment system, GC/GC-MS, wind tunnel ageing); format: physicochemical; conditions: two-layer carnauba wax; wind tunnel 5 km/h, 27° C.; retested over 20 days; FIG. 1
Description: In this experiment Eppendorf tubes were filled with two layers of molten carnauba wax containing different concentrations of Codlemone (E,E)-8,10-Dodecadien-1-ol (E8E10-120H). […] In the lower part of the tube, 0.75 cm^3 of molten carnauba wax containing 5 mg of codlemone and the above compounds was poured in and allowed to solidify. The next step was to add a 0.25 cm^3 cap of molten carnauba wax with 1 mg of codlemone and the above compounds to the top of the solid wax. The concept behind this experiment was that the upper layer would reduce the initial surge of pheromone that is an unwanted characteristic of all known lures when opened for the first time. The hope was that by putting a low dose in the upper layer, the initial surge would be smaller and as the pheromone in this low dose layer disappeared it would be replaced by a steady flow of pheromone permeating through it from the higher concentration layer beneath.
The lures were formulated and immediately frozen and stored in impermeable aluminum sachets until they were placed into an entrainment system comprising a sealed glass sample chamber and an adsorbent tube filled with Porapak Q, obtained from Supelco, Bellefonte, Pa. Semiochemical(s) released over 2-hour intervals were transferred to the adsorbent by use of a vacuum pump, and eluted for GC/GC-MS analysis using dichloromethane. […]

[2] = Pheromone content of carnauba wax cubes after manufacture and 1 month storage (Soxhlet extraction, Gas Chromatography); format: physicochemical; conditions: 12 mm carnauba wax cubes with 5 mg codlemone
Description: Carnauba wax was melted in a pan on a hot plate at 105° C. and was poured into […] mould blocks. Theses were allowed to cool and were weighed, giving an average of 1.4 g per block. From this, it was calculated that 50 mg of codlemone should be added to every 14 g of molten carnauba wax to make ten […] cubes each containing 5 mg. These cubes were made using technical grade 99% pure Codlemone (E,E)-8,10-Dodecadien-1-ol (E8E10-120H) sourced from Bedoukian Research Inc., Danbury, Conn., US and the cubes were then cooled and stored in heat sealed aluminum sachets in a freezer for 1 month. They were then removed from the freezer and the pheromone was extracted from each cube by Soxhlet extraction with ethanol and analyzed by Gas Chromatography.

SMILES | release rate of compounds from the Eppendorf wax lures [1] | lost during manufacturing, storage for 1 month and analysis [2] [%] | initial loading remaining in the cubes ([2]; average, stored in heat sealed aluminum sachets in a freezer for 1 month) [%]
CCCCCCCCCCCCC [Tridecane (13:HC), Tridecane] | releases much more quickly than Decyl Acetate (10:Ac) | – | –
C/C=C/C=C/CCCCCCCO [Codlemone, (E,E)-8,10-Dodecadien-1-ol] | – | 2.5 | 97.5
